Reference: US20260055088A1, “HETEROCYCLIC COMPOUND, METHOD FOR PREPARING SAME, AND PHARMACEUTICAL USE THEREOF” (Jiangsu Hengrui Pharmaceuticals Co., Ltd., priority 2022, published 2026)
Where a name gives a salt, the structure may show the parent alone.

These compounds were tested against Nav1.8 ion channel stably expressed on HEK293 cells (Homo sapiens (Human), UniProt Q9Y5Y9) (assay: Inhibitory activity against Nav1.8, manual patch clamp). Conditions: resting protocol (-80 mV to 10 mV), 1 μM TTX, read-out: IC50 for the inhibition of Nav1.8 channel activity.
Assay type: cell-based
Text: The objective of the experiment was to investigate the effects of the compounds on the Nav1.8 ion channel in ex vivo experiments. The Nav1.8 ion channel is stably expressed on HEK293 cells. After the Nav1.8 current stabilized, the effects of the compounds on the Nav1.8 ion channel were obtained by comparing the magnitudes of the Nav1.8 currents before and after the compounds were applied.
• 1) A patch clamp amplifier: patch clamp PC-505B (WARNER instruments)/MultiClamp 700A (Axon instrument) • 2) A digital-to-analog converter: Digidata 1440A (Axon CNS)/Digidata 1550A (Axon instruments) • 3) A micromanipulator: MP-225 (SUTTER instrument) • 4) An inverted microscope: TL4 (Olympus) • 5) Glass micropipette puller: PC-10 (NARISHIGE) • 6) Microelectrode glass capillaries: B12024F (Wuhan VitalSense Scientific Instruments Co., Ltd.) • 7) Dimethyl sulfoxide (DMSO) D2650 (Sigma-Aldrich) • 8) TTX AF3014 (Affix Scientific)
The compounds for preparing the intracellular and extracellular fluids were purchased from Sigma (St. Louis, MO) except for the NaOH and KOH for the acid-base titrations. The extracellular fluid (mM) was: NaCl, 137; KCl, 4; CaCl2, 1.8; MgCl2, 1; HEPES, 10; glucose, 10; pH 7.4 (NaOH titration). The intracellular fluid (mM) was: aspartic acid, 140; MgCl2, 2; EGTA, 11; HEPES, 10; pH 7.2 (CsOH titration). All test and control compound solutions contained 1 μM TTX.
The test compounds were stored at a concentration of 9 mM in dimethyl sulfoxide (DMSO). On the testing day, the compounds were further dissolved in the extracellular fluid to prepare the required concentrations.
1) After the compounds were prepared into solutions with specified concentrations, the compound solutions were sequentially added to channels in ascending order according to their concentrations, and each channel was labeled.
2) A cell was transferred to the perfusion chamber. Positive pressure was applied inside the electrode, and the electrode tip was brought into contact with the cell. The three-way valve of the suction device was switched to the state where all three ways were open, and negative pressure was then applied to the electrode, allowing a high-resistance seal to form between the electrode and the cell. The application of negative pressure was continued to rupture the cell membrane, leading to the formation of a current pathway.
3) After the cell membrane rupture current stabilized, perfusion was performed with different concentrations in sequence. If the current remained stable for at least one minute, perfusion was performed with the next concentration.
4) The perfusion chamber was cleaned. The perfusion chamber was rinsed with the compound solutions in descending order according to their concentrations, with each concentration applied for 20 s. Finally, the perfusion chamber was rinsed with the extracellular fluid for 1 min.
The cell was clamped at −80 mV and then depolarized to 10 mV using a square wave lasting for 10 ms to obtain a Nav1.8 current. This procedure was repeated once every 5 seconds. The maximum current induced by the square wave was detected. After the current stabilized, perfusion was performed with the test compounds. After the reaction stabilized, the strength of the blocking was calculated.
The data were stored on a computer system and analyzed. Data acquisition and analysis were performed using pCLAMP 10 (Molecular Devices, Union City, CA), and the results were reviewed by a manager. “Current stabilized” means that the changes in current over time were within a limited range. The magnitude of the current after stabilization was used to calculate the effect of the compound at this […].
The inhibitory activity of the compounds of the present disclosure against Nav1.8 was determined through the above assay.

CCNNC(=O)c1cc(NC(=O)[C@@H]2O[C@@](C)(C(F)(F)F)[C@@H](C)[C@H]2c2ccc(F)c(F)c2OC)ccn1 [Example 22, (2R,3S,4S,5R)-3-(3,4-Difluoro-2-methoxyphenyl)-N-(2-(2-ethylhydrazine-1-carbonyl)pyridin-4-yl)-4,5-dimethyl-5-(trifluoromethyl)tetrahydrofuran-2-carboxamide] and CNNC(=O)c1cc(NC(=O)[C@@H]2O[C@@](C)(C(F)(F)F)[C@@H](C)[C@H]2c2ccc(F)c(F)c2OC)ccn1 [Example 19, (2R,3S,4S,5R)-3-(3,4-Difluoro-2-methoxyphenyl)-4,5-dimethyl-N-(2-(2-methylhydrazine-1-carbonyl)pyridin-4-yl)-5-(trifluoromethyl)tetrahydrofuran-2-carboxamide] are within 1.5-fold of each other in IC50: 0.68 nM for the first, 1.01 nM for the second.

First: COc1c([C@H]2[C@H](C(=O)Nc3ccnc(C(=O)NNC4CC4)c3)O[C@@](C)(C(F)(F)F)[C@H]2C)ccc(F)c1F [Example 23, (2R,3S,4S,5R)—N-(2-(2-Cyclopropylhydrazine-1-carbonyl)pyridin-4-yl)-3-(3,4-difluoro-2-methoxyphenyl)-4,5-dimethyl-5-(trifluoromethyl)tetrahydrofuran-2-carboxamide]
Second: COc1c([C@H]2[C@H](C(=O)Nc3ccnc(C(=O)NOCC4CC4)c3)O[C@@](C)(C(F)(F)F)[C@H]2C)ccc(F)c1F [Example 18, N-(Cyclopropylmethoxy)-4-((2R,3S,4S,5R)-3-(3,4-difluoro-2-methoxyphenyl)-4,5-dimethyl-5-(trifluoromethyl)tetrahydrofuran-2-carboxamido)picolinamide]
The IC50 of the first is 1.5-fold higher: 2.85 nM for the first, 1.89 nM for the second. The second is the more potent here.

C/N=C(\N)c1cc(NC(=O)[C@@H]2O[C@@](C)(C(F)(F)F)[C@@H](C)[C@H]2c2ccc(F)c(F)c2OC)ccn1 [Example 21, (2R,3S,4S,5R)-3-(3,4-Difluoro-2-methoxyphenyl)-4,5-dimethyl-N-(2-((Z)—N′-methylcarbamimidoyl)pyridin-4-yl)-5-(trifluoromethyl)tetrahydrofuran-2-carboxamide] and [2H]C([2H])([2H])O/N=C(\N)c1cc(NC(=O)[C@@H]2O[C@@](C)(C(F)(F)F)[C@@H](C)[C@H]2c2ccc(F)c(F)c2OC)ccn1 [Example 37, (2R,3S,4S,5R)-3-(3,4-Difluoro-2-methoxyphenyl)-N-(2-((Z)—(N′-methoxy-d3)carbamimidoyl)pyridin-4-yl)-4,5-dimethyl-5-(trifluoromethyl)tetrahydrofuran-2-carboxamide] are within 1.5-fold of each other in IC50: 1.35 nM for the first, 1.86 nM for the second.

Compared with COc1c([C@H]2[C@H](C(=O)Nc3ccnc(C(C)(C)O)c3)O[C@@](C)(C(F)(F)F)[C@H]2C)ccc(F)c1F [Example 3, (2R,3S,4S,5R)-3-(3,4-Difluoro-2-methoxyphenyl)-N-(2-(2-hydroxypropan-2-yl)pyridin-4-yl)-4,5-dimethyl-5-(trifluoromethyl)tetrahydrofuran-2-carboxamide], COc1c([C@H]2[C@H](C(=O)Nc3ccnc(NC(C)=O)c3)O[C@@](C)(C(F)(F)F)[C@H]2C)ccc(F)c1F [Example 11, (2R,3S,4S,5R)—N-(2-Acetamidopyridin-4-yl)-3-(3,4-difluoro-2-methoxyphenyl)-4,5-dimethyl-5-(trifluoromethyl)tetrahydrofuran-2-carboxamide] is 1.7-fold lower in IC50: 2.65 nM for the first, 1.54 nM for the second.

COc1c([C@H]2[C@H](C(=O)Nc3ccnc(C(=O)N4CCCN4)c3)O[C@@](C)(C(F)(F)F)[C@H]2C)ccc(F)c1F [Example 14, (2R,3S,4S,5R)-3-(3,4-Difluoro-2-methoxyphenyl)-4,5-dimethyl-N-(2-(pyrazolidine-1-carbonyl)pyridin-4-yl)-5-(trifluoromethyl)tetrahydrofuran-2-carboxamide] and COc1c([C@H]2[C@H](C(=O)Nc3ccnc(C(=O)N4CCCO4)c3)O[C@@](C)(C(F)(F)F)[C@H]2C)ccc(F)c1F [Example 15, (2R,3S,4S,5R)-3-(3,4-Difluoro-2-methoxyphenyl)-N-(2-(isoxazolidine-2-carbonyl)pyridin-4-yl)-4,5-dimethyl-5-(trifluoromethyl)tetrahydrofuran-2-carboxamide] are within 1.5-fold of each other in IC50: 2.12 nM for the first, 1.78 nM for the second.

COc1c([C@H]2[C@H](C(=O)Nc3ccnc(OC[C@H](O)CO)c3)O[C@@](C)(C(F)(F)F)[C@H]2C)ccc(F)c1F [Example 2, (2R,3S,4S,5R)-3-(3,4-Difluoro-2-methoxyphenyl)-N-(2-((R)-2,3-dihydroxypropoxy)pyridin-4-yl)-4,5-dimethyl-5-(trifluoromethyl)tetrahydrofuran-2-carboxamide] and COc1c([C@H]2[C@H](C(=O)Nc3ccnc(OCC(O)C4(O)CC4)c3)O[C@@](C)(C(F)(F)F)[C@H]2C)ccc(F)c1F (stereo partly drawn) [Example 39, (2R,3S,4S,5R)-3-(3,4-Difluoro-2-methoxyphenyl)-N-(2-(2-hydroxy-2-(1-hydroxycyclopropyl)ethoxy)pyridin-4-yl)-4,5-dimethyl-5-(trifluoromethyl)tetrahydrofuran-2-carboxamide] are within 1.5-fold of each other in IC50: 2.89 nM for the first, 2.68 nM for the second.

First: COc1c([C@H]2[C@H](C(=O)Nc3ccnc(C(N)CO)c3)O[C@@](C)(C(F)(F)F)[C@H]2C)ccc(F)c1F (stereo partly drawn) [Example 6, (2R,3S,4S,5R)—N-(2-(1-Amino-2-hydroxyethyl)pyridin-4-yl)-3-(3,4-difluoro-2-methoxyphenyl)-4,5-dimethyl-5-(trifluoromethyl)tetrahydrofuran-2-carboxamide]
Second: COc1c([C@H]2[C@H](C(=O)Nc3ccnc(NC(N)=O)c3)O[C@@](C)(C(F)(F)F)[C@H]2C)ccc(F)c1F [Example 9, (2R,3S,4S,5R)-3-(3,4-Difluoro-2-methoxyphenyl)-4,5-dimethyl-5-(trifluoromethyl)-N-(2-ureidopyridin-4-yl)tetrahydrofuran-2-carboxamide]
The IC50 of the first is 1.7-fold lower: 1.87 nM for the first, 3.24 nM for the second. The first is the more potent here.

Going from CONC(=O)c1cc(NC(=O)[C@@H]2O[C@@](C)(C(F)(F)F)[C@@H](C)[C@H]2c2ccc(F)c(F)c2OC)ccn1 [Example 5, 4-((2R,3S,4S,5R)-3-(3,4-Difluoro-2-methoxyphenyl)-4,5-dimethyl-5-(trifluoromethyl)tetrahydrofuran-2-carboxamido)-N-methoxypicolinamide] to COc1c([C@H]2[C@H](C(=O)Nc3ccnc(C(=O)NN(C)C)c3)O[C@@](C)(C(F)(F)F)[C@H]2C)ccc(F)c1F [Example 24, (2R,3S,4S,5R)-3-(3,4-Difluoro-2-methoxyphenyl)-N-(2-(2,2-dimethylhydrazine-1-carbonyl)pyridin-4-yl)-4,5-dimethyl-5-(trifluoromethyl)tetrahydrofuran-2-carboxamide], the IC50 rises from 0.71 nM to 2.12 nM (3-fold). The first is the more potent here.

Going from COc1c([C@H]2[C@H](C(=O)Nc3ccc(F)c(C(=N)N)c3)O[C@@](C)(C(F)(F)F)[C@H]2C)ccc(F)c1F [Example 27, (2R,3S,4S,5R)—N-(3-Carbamimidoyl-4-fluorophenyl)-3-(3,4-difluoro-2-methoxyphenyl)-4,5-dimethyl-5-(trifluoromethyl)tetrahydrofuran-2-carboxamide] to COc1c([C@H]2[C@H](C(=O)Nc3ccnc(C(=O)C(N)=O)c3)O[C@@](C)(C(F)(F)F)[C@H]2C)ccc(F)c1F [Example 26, (2R,3S,4S,5R)—N-(2-(2-Amino-2-oxoacetyl)pyridin-4-yl)-3-(3,4-difluoro-2-methoxyphenyl)-4,5-dimethyl-5-(trifluoromethyl)tetrahydrofuran-2-carboxamide trifluoroacetate], the IC50 rises from under 0.16 nM to 1.09 nM.

In the case of CO/N=C(\N)c1cc(NC(=O)[C@@H]2O[C@@](C)(C(F)(F)F)[C@@H](C)[C@H]2c2ccc(F)c(F)c2OC)cc[n+]1[O-] [Example 44, 4-((2R,3S,4S,5R)-3-(3,4-Difluoro-2-methoxyphenyl)-4,5-dimethyl-5-(trifluoromethyl)tetrahydrofuran-2-carboxamido)-2-((Z)—N′-methoxycarbamimidoyl)pyridine 1-oxide], the IC50 is reported as 0.53 nM.
